Assay results reported in PubChem BioAssay (NCI).
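Assay format: 96-well plates, 48-hour exposure. The concentration for 50% growth inhibition is given as GI50. At the TGI there is no net growth.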

What was measured:
Experiment in all cases: NCI anticancer screen, dose series, 48 h
786-0 renal = system: 786-0 renal
A549 NSCLC = system: A549 NSCLC
ACHN renal = system: ACHN renal
BT-549 breast = system: BT-549 breast
CAKI-1 renal = system: CAKI-1 renal
CCRF-CEM leukemia = system: CCRF-CEM leukemia
COLO 205 colon = system: COLO 205 colon
DU-145 prostate = system: DU-145 prostate
EKVX NSCLC = system: EKVX NSCLC
HCC-2998 colon = system: HCC-2998 colon
HCT-116 colon = system: HCT-116 colon
HCT-15 colon = system: HCT-15 colon
HL-60(TB) leukemia = system: HL-60(TB) leukemia
HOP-62 NSCLC = system: HOP-62 NSCLC
HOP-92 NSCLC = system: HOP-92 NSCLC
HS 578T breast = system: HS 578T breast
HT29 colon = system: HT29 colon
IGROV1 ovarian = system: IGROV1 ovarian
K-562 leukemia = system: K-562 leukemia
KM12 colon = system: KM12 colon
LOX IMVI melanoma = system: LOX IMVI melanoma
M14 melanoma = system: M14 melanoma
MALME-3M melanoma = system: MALME-3M melanoma
MCF7 breast = system: MCF7 breast
MDA-MB-231 breast = system: MDA-MB-231 breast
MDA-MB-435 = system: MDA-MB-435
MOLT-4 leukemia = system: MOLT-4 leukemia
NCI-H226 lung = system: NCI-H226 lung

COC(=O)[C@H](C)NC(=O)[C@@H](OC)[C@@H]1Cc2cc3cc(OC4CC(OC5CC(O)C(O)C(C)O5)C(O)C(C)O4)c(C)c(O)c3c(O)c2C(=O)[C@H]1OC1CC(OC2CC(OC3CC(C)(O)C(O)C(C)O3)C(O)C(C)O2)C(O)C(C)O1 (stereo not given in full)
GI50 (786-0 renal): 148 nM
TGI (786-0 renal): 9160 nM
GI50 (A549 NSCLC): 195 nM
TGI (A549 NSCLC): > 50000 nM
GI50 (ACHN renal): 119 nM
TGI (ACHN renal): 2230 nM
GI50 (BT-549 breast): 88.1 nM
TGI (BT-549 breast): 1200 nM
GI50 (CAKI-1 renal): 129 nM
TGI (CAKI-1 renal): 2020 nM
GI50 (CCRF-CEM leukemia): 147 nM
TGI (CCRF-CEM leukemia): > 50000 nM
GI50 (COLO 205 colon): 93.4 nM
TGI (COLO 205 colon): 1090 nM
GI50 (DU-145 prostate): 146 nM
TGI (DU-145 prostate): > 50000 nM
GI50 (EKVX NSCLC): 174 nM
TGI (EKVX NSCLC): 35500 nM
GI50 (HCC-2998 colon): 160 nM
TGI (HCC-2998 colon): 2080 nM
GI50 (HCT-116 colon): 24.5 nM
TGI (HCT-116 colon): > 50000 nM
GI50 (HCT-15 colon): 410 nM
TGI (HCT-15 colon): > 50000 nM
GI50 (HL-60(TB) leukemia): 894 nM
TGI (HL-60(TB) leukemia): 10600 nM
GI50 (HOP-62 NSCLC): 77.4 nM
TGI (HOP-62 NSCLC): > 50000 nM
GI50 (HOP-92 NSCLC): 115 nM
TGI (HOP-92 NSCLC): 7100 nM
GI50 (HS 578T breast): 98.3 nM
TGI (HS 578T breast): 2170 nM
GI50 (HT29 colon): 117 nM
TGI (HT29 colon): > 50000 nM
GI50 (IGROV1 ovarian): 50 nM
TGI (IGROV1 ovarian): > 50000 nM
GI50 (K-562 leukemia): 179 nM
TGI (K-562 leukemia): > 50000 nM
GI50 (KM12 colon): 94.4 nM
TGI (KM12 colon): > 50000 nM
GI50 (LOX IMVI melanoma): 30.8 nM
TGI (LOX IMVI melanoma): > 50000 nM
GI50 (M14 melanoma): 113 nM
TGI (M14 melanoma): 1410 nM
GI50 (MALME-3M melanoma): 29.6 nM
TGI (MALME-3M melanoma): 315 nM
GI50 (MCF7 breast): 23.6 nM
TGI (MCF7 breast): > 50000 nM
GI50 (MDA-MB-231 breast): 247 nM
TGI (MDA-MB-231 breast): > 50000 nM
GI50 (MDA-MB-435): 75.5 nM
TGI (MDA-MB-435): 905 nM
GI50 (MOLT-4 leukemia): 232 nM
TGI (MOLT-4 leukemia): 4130 nM
GI50 (NCI-H226 lung): 106 nM
